From patent US5527811A, “Isoquinolinyl compounds which are useful in treating cerebral vascular disorders” (Takeda Chemical Industries, Ltd., priority 1993, dated 1996)
Where a name gives a salt, the structure may show the parent alone. Read-outs that look alike come from different tables or passages of the source.

Key:
[1] = test system: transient cerebral ischemia in mongolian gerbils; assay: Protective effect of cerebralischemia: survival ratio after bilateral common carotid occlusion and reperfusion in gerbils; assay type: in vivo, mongolian gerbil; conditions: Meriones unguiculatus, ip; for responders at 5 mg/kg: read-out: Survival ratio
Experimental: Test Example 1 Protective effect of cerebralischemia
Male mongolian gerbils (Seiwa/8-10 wks) (n=8-10) were used. Bilateral common carotid arteries were occluded after the incision of the center of the neck under ether anesthesia. Global cerebral ischemia was induced by the occlusion of bilateral common carotid arteries (15 minutes), and after that these arteries were reperfused. Test sample was administered intraperiatonelly 30 minutes before occlusion and 90 minutes after reperfusion. In the control group, vehicle (distilled water, saline or 5% gum arabic) was administered in the same fashion. Survival ratio was estimated at 8 hr after reperfusion (Table 2).

[2] = test system: brain edema in male wistar rats; assay: Anti-brain edema effect (middle cerebral arterial occlusion and reperfusion model); assay type: in vivo, rat (wistar); conditions: 10 mg/kg(ip) × 7, rat, 3rd day after reperfusion, * p < 0.05
Description: Test Example 2 Anti-brain edema effect (middle cerebral arterial occlusion and reperfusion model)
Male wistar rats (Jcl:9wks) were anesthetized with inhalation of halothane (2-bromo-2-chloro-1,1,1-trifluoroethane). After the incision of neck, bilateral common carotid arteries were […] an embolized needle (diameter 0.3 mm, length 26 mm nylon thread) was inserted into the left internal carotid artery through external carotid artery and, simultaneously, the bilateral common carotid arteries were occluded by the Sugita's aneurysm clips. The embolized needle and the clips were removed out 30 minutes after occlusion. Test sample was administered immediately and 5 hr after reperfusion on the operated day, twice a day on the 1st and 2nd day, and 1 hr before removing the brain on the 3rd day (total 7 times), intraperiatonelly. In the control group, vehicle (distilled water, saline or 5% gum arabic) was administered in the same fasion. Brain edema on the 3rd day after reperfusion was estimated from the content of water, potassium and sodium in cerebral cortex and striatum. Water content was calculated from the ratio of dried brain weight and wet brain weight [(1-dried weight/wet weight)×100%]. The contents of pottasium and sodium were measured using the solution extracted from dried brain tissue with 14% nitric acid by the method of the framephotometer (Table 3).

[3] = 5 mg/kg, 30 min before occlusion and 90 min after reperfusion, estimated 8 hr after reperfusion, control 0
[4] = 30 min before occlusion and 90 min after reperfusion, estimated 8 hr after reperfusion, control 0

| SMILES | responders at 5 mg/kg [1, 3] | also measured |
| --- | --- | --- |
| CN(C)c1cccc(NC(=O)NCc2c(-c3ccccc3)c3cc(Cl)ccc3c(=O)n2C)c1 [14 (HCl), N-[(6-Chloro-1,2-dihydro-2-methyl-1-oxo-4-phenylisoquinolin-3-yl)methyl]-N'-(3-N,N-dimethylaminophenyl)urea hydrochloride] | 63% |  |
| CN(C)Cc1cccc(NC(=O)NCc2c(-c3ccccc3)c3cc(Cl)ccc3c(=O)n2C)c1 [15 (HCl), N-[(6-Chloro-1,2-dihydro-2-methyl-1-oxo-4-phenylisoquinolin-3-yl)methyl]-N'-(3-N,N-dimethylaminomethylphenyl)urea hydrochloride] | 88% | responders at 0.3 mg/kg [1, 4]: 80%; H2O (water content of brain) ([2]; control 81.27 (Example 1), 80.94 (Example 15(HCl))): 80.24 ± 0.23%; Na (sodium content of brain) ([2]; control 405 (Example 1), 371 (Example 15(HCl))): 325 ± 17 mEq/kg; K (potassium content of brain) ([2]; control 430 (Example 1), 440 (Example 15(HCl))): 466 ± 9 mEq/kg |
| Cn1c(CNC(=O)Nc2cccc(C(=O)O)c2)c(-c2ccccc2)c2cc(Cl)ccc2c1=O [17 (Na), N-(3-Carboxyphenyl)-N'-[(6-chloro-1,2-dihydro-2-methyl-1-oxo-4-phenylisoquinolin-3-yl)methyl]urea sodium salt] |  | responders at 5 mg/kg ([1]; 8 h): 67% |
| CC(C)Oc1cccc(N(CC(=O)O)C(=O)NCc2c(-c3ccccc3)c3cc(Cl)ccc3c(=O)n2C)c1 [22 (Ma), N-Carboxymethyl-N'-[(6-chloro-1,2-dihydro-2-methyl-1-oxo-4-phenylisoquinolin-3-yl)methyl]-N-(3isopropoxyphenyl)urea sodium salt] |  | responders at 5 mg/kg ([1]; 8 h): 63% |
| Cn1c(CNC(=O)Cc2cccc(C(=O)O)c2)c(-c2ccccc2)c2cc(Cl)ccc2c1=O [28 (Na), N-(6-Chloro-1,2-dihydro-2-methyl-1-oxo-4-phenylisoquinolin-3-yl)methyl-α-(3-carboxyphenyl)acetamide sodium salt] |  | responders at 5 mg/kg ([1]; 8 h): 75% |
| CCN(CC)Cc1cccc(NC(=O)NCc2c(-c3ccccc3)c3cc(Cl)ccc3c(=O)n2C)c1 [39 (HCl), N-[(6-Chloro-1,2-dihydro-2-methyl-1-oxo-4-phenylisoquinolin-3-yl)methyl]-N'-[3-(diethylaminomethyl)phenyl]urea] | 63% |  |
| Cn1c(CNC(=O)Nc2cccc(CN3CCCC3)c2)c(-c2ccccc2)c2cc(Cl)ccc2c1=O [40 (HCl), N-[(6-Chloro-1,2-dihydro-2-methyl-1-oxo-4-phenylisoquinolin-3-yl)methyl]-N'-[3-(1-pyrrolidinomethyl)phenyl]urea] | 75% |  |
| CCN(CC)CCc1cccc(NC(=O)NCc2c(-c3ccccc3)c3cc(Cl)ccc3c(=O)n2C)c1 [41 (HCl), N-[(6-Chloro-1,2-dihydro-2-methyl-1-oxo-4-phenylisoquinolin-3-yl)methyl]-N'-{3-[2-(diethylamino)ethyl]phenyl}urea] | 88% | responders at 0.3 mg/kg [1, 4]: 75% |
| CN(C)Cc1ccc(NC(=O)NCc2c(-c3ccccc3)c3cc(Cl)ccc3c(=O)n2C)cc1 [43 (HCl), N-[(6-Chloro-1,2-dihydro-2-methyl-1-oxo-4-phenylisoquinolin-3-yl)methyl]-N'-[4-(dimethylaminomethyl)phenyl]urea] | 63% |  |
| CN(C)CCCc1cccc(NC(=O)NCc2c(-c3ccccc3)c3cc(Cl)ccc3c(=O)n2C)c1 [44 (HCl), N-[(6-Chloro-1,2-dihydro-2-methyl-1-oxo-4-phenylisoquinolin-3-yl)methyl]-N'-{3-[3-(dimethylamino)propyl]phenyl}urea] | 63% |  |
| CN(C)CCOc1cccc(NC(=O)NCc2c(-c3ccccc3)c3cc(Cl)ccc3c(=O)n2C)c1 [45 (HCl), N-[(6-Chloro-1,2-dihydro-2-methyl-1-oxo-4-phenylisoquinolin-3-yl)methyl]-N'-{3-[2-(dimethylamino)ethoxy]phenyl}urea] | 82% |  |
| Cn1c(CNC(=O)NCCCn2ccnc2)c(-c2ccccc2)c2cc(Cl)ccc2c1=O [47 (HCl), N-[(6-Chloro-1,2-dihydro-2-methyl-1-oxo-4-phenylisoquinolin-3-yl)methyl]-N'-[3-(1-imidazolyl)propyl]urea] | 75% |  |
| CNCc1cccc(NC(=O)NCc2c(-c3ccccc3)c3cc(Cl)ccc3c(=O)n2C)c1 [48 (HCl), N-[(6-Chloro-1,2-dihydro-2-methyl-1-oxo-4-phenylisoquinolin-3-yl)methyl]-N'-[3-(methylamino)methylphenyl]urea hydrochloride] | 88% |  |
| CCNCc1cccc(NC(=O)NCc2c(-c3ccccc3)c3cc(Cl)ccc3c(=O)n2C)c1 [49 (HCl), N-[(6-Chloro-1,2-dihydro-2-methyl-1-oxo-4-phenylisoquinolin-3-yl)methyl]-N'-[3-(ethylaminomethyl)phenyl]urea hydrochloride] | 88% |  |
| Cn1c(CNC(=O)Nc2ccc3c(c2)CCC3N)c(-c2ccccc2)c2cc(Cl)ccc2c1=O (stereo not drawn) [50 (HCl), N-(1-Aminoindan-5-yl)-N'-[(6-chloro-1,2-dihydro-2-methyl-1-oxo-4-phenylisoquinolin-3-yl)methyl]urea hydrochloride] | 75% |  |
| Cn1c(CNC(=O)Nc2cccc(CN)c2)c(-c2ccccc2)c2cc(Cl)ccc2c1=O [51 (HCl), N-[3-(Aminomethyl)phenyl]-N'-[(6-chloro-1,2-dihydro-2-methyl-1-oxo-4-phenylisoquinolin-3-yl)methyl]urea hydrochloride] | 100% |  |
| CN(C)Cc1cccc(NC(=O)NCc2c(-c3ccc(F)cc3)c3ccccc3c(=O)n2C)c1 [53 (HCl), N-{[4-(4-Fluorophenyl)-1,2-dihydro-2-methyl-1-oxoisoquinolin-3-yl]methyl}-N'-[3-(dimethylaminomethyl)phenyl]urea hydrochloride] | 75% |  |
| CC(C)Oc1cccc(NC(=O)NCc2c(-c3ccccc3)c3ccccc3c(=O)n2C)c1 [Example 16, N-[(1,2-Dihydro-2-methyl-1-oxo-4-phenylisoquinolin-3yl)methyl]-N'-(3-isopropoxyphenyl)urea] | 88% |  |
| CC(C)Oc1cccc(N(C)C(=O)N(C)Cc2c(-c3ccccc3)c3cc(Cl)ccc3c(=O)n2C)c1 [Example 24, N-[(6-Chloro-1,2-dihydro-2-methyl-1-oxo-4-phenylisoquinolin-3-yl)methyl]-N'-(3-isopropoxyphenyl)-N,N'-dimethylurea] | 75% |  |
| CC(C)Oc1cccc(CC(=O)NCc2c(-c3ccccc3)c3cc(Cl)ccc3c(=O)n2C)c1 [Example 27, N-(6-Chloro-1,2-dihydro-2-methyl-1-oxo-4-phenylisoquinolin-3-yl)methyl-α-(3-isopropoxyphenyl)acetamide] | 88% |  |
| CC(C)Oc1cccc(OC(=O)NCc2c(-c3ccccc3)c3cc(Cl)ccc3c(=O)n2C)c1 [Example 29, 3-Isopropoxyphenyl N-[(6-chloro-1,2-dihydro-2-methyl-1-oxo-4-phenylisoquinolin-3-yl)methyl]carbamate] |  | responders at 5 mg/kg ([1]; 8 h): 75% |
| CC(C)Oc1cccc(CC(=O)OCc2c(-c3ccccc3)c3cc(Cl)ccc3c(=O)n2C)c1 [Example 32, (6-Chloro-1,2-dihydro-2-methyl-1-oxo-4-phenylisoquinolin-3-yl)methyl α-(3-isopropoxyphenyl)acetate] | 63% |  |
